Laboratory results reported in PubChem BioAssay (NCI).
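These data come from cells grown in 96-well plates and exposed to compound for 48 hours at five concentrations. At the TGI there is no net growth.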

What was measured:
Assay in all cases: NCI anticancer screen, dose series, 48 h
[1] = system: COLO 205 colon
[2] = system: UACC-62 melanoma
[3] = system: SNB-75 CNS
[4] = system: SK-OV-3 ovarian
[5] = system: MDA-N
[6] = system: OVCAR-5 ovarian
[7] = system: M14 melanoma
[8] = system: SW-620 colon
[9] = system: DU-145 prostate
[10] = system: MALME-3M melanoma
[11] = system: EKVX NSCLC
[12] = system: ACHN renal
[13] = system: MDA-MB-435
[14] = system: A498 renal
[15] = system: UACC-257 melanoma
[16] = system: SR leukemia
[17] = system: PC-3 prostate
[18] = system: KM12 colon
[19] = system: CCRF-CEM leukemia
[20] = system: RXF 393 renal
[21] = system: A549 NSCLC
[22] = system: HCC-2998 colon
[23] = system: LOX IMVI melanoma
[24] = system: MDA-MB-231 breast
[25] = system: RPMI-8226 leukemia
[26] = system: MOLT-4 leukemia
[27] = system: K-562 leukemia
[28] = system: SK-MEL-2 melanoma
[29] = system: IGROV1 ovarian
[30] = system: SK-MEL-28 melanoma
[31] = system: SF-295 CNS
[32] = system: OVCAR-3 ovarian
[33] = system: T-47D breast
[34] = system: NCI-H522 lung
[35] = system: NCI-H460 lung
[36] = system: SK-MEL-5 melanoma
[37] = system: NCI-H23 lung
[38] = system: HT29 colon
[39] = system: OVCAR-4 ovarian
[40] = system: SF-268 CNS
[41] = system: OVCAR-8 ovarian
[42] = system: CAKI-1 renal
[43] = system: UO-31 renal
[44] = system: BT-549 breast
[45] = system: HCT-15 colon
[46] = system: SN12C renal
[47] = system: HOP-62 NSCLC
[48] = system: HCT-116 colon
[49] = system: SF-539 CNS
[50] = system: MCF7 breast
[51] = system: NCI/ADR-RES ovarian
[52] = system: TK-10 renal
[53] = system: SNB-19 CNS
[54] = system: NCI-H226 lung
[55] = system: HOP-92 NSCLC
[56] = system: U251 CNS
[57] = system: 786-0 renal

Measured: TGI

O=C1c2scc(-c3ccc(Cl)cc3)c2-n2cccc21
13.7 µM: [16]
2780 nM: [14]
not listed: [37] | [38] | [39] | [40] | [41] | [42] | [43] | [44] | [45] | [46] | [47] | [48] | [49] | [50] | [51] | [52] | [53] | [54] | [55] | [56] | [57]
> 100 µM: all other assays above

C=C1CN(Cc2ccccc2)[C@@H]2CCCCC[C@H](C#N)[C@H]12
> 80.1 µM: [25]
> 93 µM: [55]
> 30.7 µM: [31]
> 100000 nM: [14]
> 100 µM: all other assays above
